Results: patent publication US20070196359A1, “Halosuccinimide biocide” (Minntech Corporation, priority 2006, published 2007)

Key:
[1] = test system: B. subtilis bacterial spores; assay: Efficacy against bacterial endospores (FIG. 1); type: cell-based
Procedure: The NCS biocide solution included about 1% NCS and was buffered at a pH of about 4. The NBS biocide solution included about 1% NBS and was buffered at pH about 3. […] In the case of NCS, a total kill corresponding to a 6 log reduction occurred over a period of approximately 30 minutes. In the case of NBS, a total kill corresponding to a 6 log reduction occurred over a period of approximately 60 minutes.

[2] = test system: M. terrae mycobacteria; assay: Efficacy against mycobacteria (FIG. 2); type: cell-based; conditions: for time to total kill of mycobacteria: pH 7.4
Procedure: The NCS biocide solution included about 1% NCS, was buffered at a pH of about 4 and was tested at 20° C. The NBS biocide solution included about 1% NBS, was buffered at a pH of about 3 and was tested at 20° C. Each solution produced a total kill corresponding to a 6 log reduction of the mycobacteria.

[3] = Stability of the biocide solution over time, active ingredient by iodometric titration (FIG. 3); type: physicochemical
Text: The NBS biocide solution included about 1.0% NBS, 0.19% surfactant L-44 and was at a pH of about 3. The NCS biocide solution included about 1.0% NCS, 0.19% surfactant and was at a pH of about 3.

[4] = about 1% NBS, buffered at pH about 3, 20° C
[5] = about 1% NCS, buffered at pH about 4, 20° C

SMILES	period to total kill (6 log reduction) [1, 4]	total kill, log reduction in the bacteria [1, 4] [log]	time to total kill [2, 4]	total kill, log reduction of the mycobacteria [2, 4] [log]	time to total kill of mycobacteria [2]	stability over time ([3]; about 1.0% NBS, 0.19% surfactant L-44, pH about 3, increasing amounts of succinimide added, best at 9.0%)	period to total kill (6 log reduction) [1, 5]	total kill, log reduction in the bacteria [1, 5] [log]	time to total kill [2, 5]	total kill, log reduction of the mycobacteria [2, 5] [log]	stability over time compared to NCS alone ([3]; about 1.0% NCS, 0.19% surfactant, pH about 3, 4.8% succinimide added)
O=C1CCC(=O)N1Br [NBS, N-bromosuccinimide]	approximately 60 minutes	6	about 30 seconds	6	about 175 seconds	improved stability over time	–	–	–	–	–
O=C1CCC(=O)N1Cl [NCS, N-chlorosuccinimide]	–	–	–	–	about 90 seconds	–	approximately 30 minutes	6	about 30 seconds	6	improved stability
